The values that follow are results of earlier work, collected in publication PMC5937704 (Biochemistry, 2018).

The test system of data set [1] is bromodomain 2 (BD2) of TAF1.
Data set [2] concerns bromodomain 1 (BD1) of TAF1.

For `CCOC(=O)Nc1cc(-c2ccc(C)c(NS(C)(=O)=O)c2)nn2c(C)nnc12` [BSP, Bromosporine], in data set [1], the “affinity for BD2 of TAF1” value is recorded as “nanomolar affinity”. Moreover, the “affinity for BD1 of TAF1” value in data set [2] is on record as “significantly weaker (micromolar) affinity”.
